Test results from the supplement of paper PMC10307832.

What was measured:
Experiment in all cases: relative viability (nuclei count vs DMSO), 5 days (fraction); higher = more cells survive
[1] = compound: O=C(CCCCCCNC(=O)c1cnc(N(c2ccccc2)c2ccccc2)nc1)NO [Ricolinostat]
Procedure, shortened: (§1)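 In 1536-well plates, lung cancer cell lines rested overnight at 37 °C before five library-drug doses (not always all listed), √10 apart, were pinned onto vehicle-anchored plates. Nuclei were counted with MetaXpress from 4× Hoechst images taken after 5 days without medium change. Viability compares treated-well with vehicle-well nuclei as a median over plates, and plates needed control CV below 25% plus at least one doubling to pass.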

[2] = compound: CC1=CN2C(=O)C=C(N=C2C(=C1)C(C)NC3=CC=CC=C3)N4CCOCC4 [TGX 221]
Procedure, shortened: as §1

[3] = compound: C1=CC=C(C(=C1)C2=CC=C(C=C2)C3=CSC4=C3C(=C(C(=O)N4)C#N)O)O
Procedure, shortened: as §1

NCI-H1648
relative viability ([1]; 0.08 µM): 0.719 | relative viability ([1]; 0.253 µM): 1.04 | relative viability ([1]; 0.8 µM): 0.745 | relative viability ([1]; 2.53 µM): 0.792 | relative viability ([2]; 0.08 µM): 0.736 | relative viability ([2]; 0.253 µM): 0.656 | relative viability ([2]; 0.8 µM): 0.974 | relative viability ([2]; 2.53 µM): 0.686 | relative viability ([2]; 8 µM): 0.873 | relative viability ([3]; 0.08 µM): 0.644 | relative viability ([3]; 0.253 µM): 0.68 | relative viability ([3]; 0.8 µM): 0.755 | relative viability ([3]; 2.53 µM): 0.794 | relative viability ([3]; 8 µM): 0.739

NCI-H1755
relative viability ([1]; 0.08 µM): 0.885 | relative viability ([1]; 0.253 µM): 0.961 | relative viability ([1]; 0.8 µM): 0.978 | relative viability ([1]; 2.53 µM): 1.03 | relative viability ([2]; 0.08 µM): 0.954 | relative viability ([2]; 0.253 µM): 0.971 | relative viability ([2]; 0.8 µM): 0.972 | relative viability ([2]; 2.53 µM): 0.915 | relative viability ([2]; 8 µM): 0.828 | relative viability ([3]; 0.08 µM): 1.06 | relative viability ([3]; 0.253 µM): 1.08 | relative viability ([3]; 0.8 µM): 0.991 | relative viability ([3]; 2.53 µM): 1.05 | relative viability ([3]; 8 µM): 0.923

PC-3 [JPC-3]
relative viability ([1]; 0.08 µM): 0.801 | relative viability ([1]; 0.253 µM): 0.977 | relative viability ([1]; 0.8 µM): 1.01 | relative viability ([1]; 2.53 µM): 0.883 | relative viability ([2]; 0.08 µM): 0.971 | relative viability ([2]; 0.253 µM): 1.05 | relative viability ([2]; 0.8 µM): 1.04 | relative viability ([2]; 2.53 µM): 0.998 | relative viability ([2]; 8 µM): 1.03 | relative viability ([3]; 0.08 µM): 0.898 | relative viability ([3]; 0.253 µM): 1.11 | relative viability ([3]; 0.8 µM): 0.959 | relative viability ([3]; 2.53 µM): 1.08 | relative viability ([3]; 8 µM): 0.944

HCC-44
relative viability ([1]; 0.08 µM): 1.01 | relative viability ([1]; 0.253 µM): 0.966 | relative viability ([1]; 0.8 µM): 0.962 | relative viability ([1]; 2.53 µM): 0.77 | relative viability ([2]; 0.08 µM): 0.991 | relative viability ([2]; 0.253 µM): 1.03 | relative viability ([2]; 0.8 µM): 1.03 | relative viability ([2]; 2.53 µM): 0.99 | relative viability ([2]; 8 µM): 1.03 | relative viability ([3]; 0.08 µM): 1.03 | relative viability ([3]; 0.253 µM): 1 | relative viability ([3]; 0.8 µM): 0.997 | relative viability ([3]; 2.53 µM): 0.956 | relative viability ([3]; 8 µM): 0.991

CAL-12T
relative viability ([1]; 0.08 µM): 0.835 | relative viability ([1]; 0.253 µM): 0.953 | relative viability ([1]; 0.8 µM): 0.953 | relative viability ([1]; 2.53 µM): 1.01 | relative viability ([2]; 0.08 µM): 0.963 | relative viability ([2]; 0.253 µM): 0.936 | relative viability ([2]; 0.8 µM): 0.992 | relative viability ([2]; 2.53 µM): 0.917 | relative viability ([2]; 8 µM): 1.05 | relative viability ([3]; 0.08 µM): 0.894 | relative viability ([3]; 0.253 µM): 1.24 | relative viability ([3]; 0.8 µM): 0.946 | relative viability ([3]; 2.53 µM): 0.929 | relative viability ([3]; 8 µM): 0.747

ChaGo-K-1
relative viability ([1]; 0.08 µM): 0.936 | relative viability ([1]; 0.253 µM): 1 | relative viability ([1]; 0.8 µM): 0.921 | relative viability ([1]; 2.53 µM): 0.832 | relative viability ([2]; 0.08 µM): 0.904 | relative viability ([2]; 0.253 µM): 0.938 | relative viability ([2]; 0.8 µM): 0.987 | relative viability ([2]; 2.53 µM): 0.958 | relative viability ([2]; 8 µM): 1.04 | relative viability ([3]; 0.08 µM): 0.785 | relative viability ([3]; 0.253 µM): 1.08 | relative viability ([3]; 0.8 µM): 1.01 | relative viability ([3]; 2.53 µM): 1.01 | relative viability ([3]; 8 µM): 0.809

NCI-H2126
relative viability ([1]; 0.08 µM): 0.718 | relative viability ([1]; 0.253 µM): 1.01 | relative viability ([1]; 0.8 µM): 0.989 | relative viability ([1]; 2.53 µM): 0.969 | relative viability ([2]; 0.08 µM): 0.945 | relative viability ([2]; 0.253 µM): 0.989 | relative viability ([2]; 0.8 µM): 0.968 | relative viability ([2]; 2.53 µM): 0.837 | relative viability ([2]; 8 µM): 0.944 | relative viability ([3]; 0.08 µM): 0.943 | relative viability ([3]; 0.253 µM): 1.09 | relative viability ([3]; 0.8 µM): 1 | relative viability ([3]; 2.53 µM): 0.963 | relative viability ([3]; 8 µM): 0.979

HCC-827
relative viability ([1]; 0.08 µM): 0.946 | relative viability ([1]; 0.253 µM): 1.02 | relative viability ([1]; 0.8 µM): 1.01 | relative viability ([1]; 2.53 µM): 0.991 | relative viability ([2]; 0.08 µM): 0.982 | relative viability ([2]; 0.253 µM): 1.03 | relative viability ([2]; 0.8 µM): 1.07 | relative viability ([2]; 2.53 µM): 1.04 | relative viability ([2]; 8 µM): 0.983 | relative viability ([3]; 0.08 µM): 1.03 | relative viability ([3]; 0.253 µM): 1.05 | relative viability ([3]; 0.8 µM): 1.08 | relative viability ([3]; 2.53 µM): 1.07 | relative viability ([3]; 8 µM): 1.11

LCLC-97TM1
relative viability ([1]; 0.08 µM): 0.809 | relative viability ([1]; 0.253 µM): 1.06 | relative viability ([1]; 0.8 µM): 0.997 | relative viability ([1]; 2.53 µM): 0.855 | relative viability ([2]; 0.08 µM): 0.97 | relative viability ([2]; 0.253 µM): 0.76 | relative viability ([2]; 0.8 µM): 1.02 | relative viability ([2]; 2.53 µM): 0.863 | relative viability ([2]; 8 µM): 0.924 | relative viability ([3]; 0.08 µM): 0.895 | relative viability ([3]; 0.253 µM): 1.34 | relative viability ([3]; 0.8 µM): 1.02 | relative viability ([3]; 2.53 µM): 1.08 | relative viability ([3]; 8 µM): 1.03

HCC-15
relative viability ([1]; 0.08 µM): 0.847 | relative viability ([1]; 0.253 µM): 0.94 | relative viability ([1]; 0.8 µM): 0.983 | relative viability ([1]; 2.53 µM): 0.938 | relative viability ([2]; 0.08 µM): 0.945 | relative viability ([2]; 0.253 µM): 0.965 | relative viability ([2]; 0.8 µM): 0.9 | relative viability ([2]; 2.53 µM): 0.916 | relative viability ([2]; 8 µM): 0.969 | relative viability ([3]; 0.08 µM): 0.958 | relative viability ([3]; 0.253 µM): 1.14 | relative viability ([3]; 0.8 µM): 1.04 | relative viability ([3]; 2.53 µM): 1.04 | relative viability ([3]; 8 µM): 0.904

NCI-H727
relative viability ([1]; 0.08 µM): 0.763 | relative viability ([1]; 0.253 µM): 1.11 | relative viability ([1]; 0.8 µM): 1 | relative viability ([1]; 2.53 µM): 0.81 | relative viability ([2]; 0.08 µM): 0.885 | relative viability ([2]; 0.253 µM): 0.887 | relative viability ([2]; 0.8 µM): 0.948 | relative viability ([2]; 2.53 µM): 0.898 | relative viability ([2]; 8 µM): 0.97 | relative viability ([3]; 0.08 µM): 1.02 | relative viability ([3]; 0.253 µM): 0.92 | relative viability ([3]; 0.8 µM): 0.987 | relative viability ([3]; 2.53 µM): 0.808 | relative viability ([3]; 8 µM): 0.842

NCI-H2170
relative viability ([1]; 0.08 µM): 0.904 | relative viability ([1]; 0.253 µM): 0.939 | relative viability ([1]; 0.8 µM): 1.01 | relative viability ([1]; 2.53 µM): 1.04 | relative viability ([2]; 0.08 µM): 0.959 | relative viability ([2]; 0.253 µM): 0.958 | relative viability ([2]; 0.8 µM): 0.989 | relative viability ([2]; 2.53 µM): 0.93 | relative viability ([2]; 8 µM): 0.993 | relative viability ([3]; 0.08 µM): 1.01 | relative viability ([3]; 0.253 µM): 0.961 | relative viability ([3]; 0.8 µM): 0.953 | relative viability ([3]; 2.53 µM): 0.995 | relative viability ([3]; 8 µM): 0.804
